Each block holds one compound with its values, some of them ahead of it.
Key:
[1] = Binding to serum proteins; assay type: in vitro ADME; settings: not shown
[2] = system: HIV isolate LAV-1BR in PHA stimulated human PBL; experiment: microbe, parasite or virus in culture; assay type: cell-based; settings: for CPM RT: [3H]-TTP incorporated by reverse transcriptase, DMSO control 6338
Description: (§1) The effect of various drugs on growth of HIV isolate LAV-1BR in PHA stimulated human PBL was measured using two assays. Reverse transcriptase activity was measured in disrupted virions from the cell free supernatant as previously described (Anand et al, "Interaction between rifabutin and human immunodeficiency virus type-1: inhibition of replication, cytopathic effect and reverse transcriptase in vitro," Antimicrob. Agents Chemother. 32 684-688 (1988)).

[3] = system: HIV isolate LAV-1BR in PHA stimulated human PBL; experiment: Production of intracellular HIV p24 measured by ELISA; assay type: cell-based; settings: for pg/ml HIV p24: intracellular p24, ELISA, DMSO control 1222
Description: as §1

[4] = Viability of PBL after 72 hr culture (propidium iodide exclusion); assay type: cell-based, human; settings: human, PBL, 72 hr culture, untreated 90, read-out: % Viable Cells
Description: (§2) The effect of compounds on the viability of PBL was determined after culturing PBL for 72 hr at 37° C. Some cells were stimulated with 1 μl/ml of anti-T-cell receptor antibody for this time period. Cells were then washed 1× in PBS and resuspended in PBS with 3 μg/ml propidium iodide. After 10 min incubation cells were analyzed by flow cytometry. Live cells were defined as those excluding propidium iodide.

[5] = target: T1, CD4 on PBL (Homo sapiens, UniProt P01730); experiment: Inhibition of binding of αCD4-FITC (anti-Leu3a) to PBL, flow cytometry; settings: for remaining activity at 7 µM: compound 7 μM
T1 construct: Human peripheral blood lymphocytes (PBL) were prepared by density gradient centrifugation; endogenous in cells; host or cells: human peripheral blood lymphocytes (PBL)
Description: (§3) Human peripheral blood lymphocytes (PBL) were prepared by density gradient centrifugation as previously described (Weaver et al., 1990). The effect of drugs on the binding of anti-CD4-FITC (αCD4), anti-CD3-FITC (αCD3), anti-CD8-FITC (αCDS), or HIV coat protein rgp120 was measured as previously described (Weaver et al., 1990). Briefly, cells were treated with a drug (10' RT) and then FITC labeled antibody or rgp120 followed by anti-rgp120-FITC. Binding was measured by quantitating cell bound fluorescence using flow cytometry. Some binding assays were run in phenol red free RPMI 1640/5% serum instead of the usual PBS to determine effectiveness under cell culture conditions.
Since anti-Leu3a (αCD4) and rgp120 bind to the same site on the CD4 molecule, interference in binding of αCD4 can be used to screen compounds for possible anti-HIV activity. EB or ATA are used as positive controls since they have been shown previously to block eCD4 and rpg120 binding (Weaver et al, "Polyionic compounds selectively alter availability of CD4 receptors for HIV coat protein rgp120," AIDS Res. Human Retrovir. 6 1125-1130 (1990)). […] Six of the dyes tested show significant ability to block αCD4 binding. Three compounds, Acid Blue 116, Acid Red 115, and Direct Red 79 were selected for more complete analysis.

[6] = target: T2, binding of HIV rgp120 to CD4 on peripheral blood lymphocytes (Homo sapiens, UniProt P01730); experiment: Inhibition of HIV rgp120 binding to PBL, detected with anti-rgp120-FITC, flow cytometry; settings: 10 min, rgp120 binding detected by αrgp120-FITC in PBS, % logarithmic mean channel number
T2 construct: Human peripheral blood lymphocytes (PBL) were prepared by density gradient centrifugation; endogenous in cells; host or cells: human peripheral blood lymphocytes (PBL)
Description: as §3
The results shown in Table 2 confirm that the three dyes selected on the basis of their interference with αCD4 binding can also block binding of rgp120. Their relative efficacy appears to be similar in both assays.

[7] = system: αCD8 binding to PBL; experiment: Specificity: binding of αCD8-FITC to PBL; design: species or system human; settings: for % Control Binding αCD8: αCD8-FITC binding in PBS, 10 min
Description: as §3
(§4) We have analyzed the specificity of these compounds by testing their ability to interfere with the binding of two other monoclonal antibodies, αCD3 and αCD8. […] The increase in binding of αCD3 on Direct Red 79 treated cells may reflect nonspecific binding.

[8] = Solubility in aqueous solutions; assay type: physicochemical; settings: concentrations needed for efficacy in the presence of serum
[9] = target: T3, αCD3 binding to PBL (Homo sapiens, UniProt P07766); experiment: Specificity: binding of αCD3-FITC to PBL
T3 construct: Human peripheral blood lymphocytes (PBL) were prepared by density gradient centrifugation; endogenous in cells; host or cells: human peripheral blood lymphocytes (PBL)
T3 sequence (P07766 23-207): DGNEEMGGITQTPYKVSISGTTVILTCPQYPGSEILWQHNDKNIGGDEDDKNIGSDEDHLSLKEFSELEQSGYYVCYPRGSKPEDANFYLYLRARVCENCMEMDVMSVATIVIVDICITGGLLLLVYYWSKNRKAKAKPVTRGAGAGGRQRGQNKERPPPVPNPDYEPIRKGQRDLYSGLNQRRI
T3 sequence (P04234 22-171 partner): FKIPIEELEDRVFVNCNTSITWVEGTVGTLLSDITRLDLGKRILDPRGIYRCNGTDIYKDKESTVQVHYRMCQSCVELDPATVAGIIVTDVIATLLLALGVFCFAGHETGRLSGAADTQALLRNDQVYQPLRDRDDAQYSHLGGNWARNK
T3 sequence (P09693 23-182 partner): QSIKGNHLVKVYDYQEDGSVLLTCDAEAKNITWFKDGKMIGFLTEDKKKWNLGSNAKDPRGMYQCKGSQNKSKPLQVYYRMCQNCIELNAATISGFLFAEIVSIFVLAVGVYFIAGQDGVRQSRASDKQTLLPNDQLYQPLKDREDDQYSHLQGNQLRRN
T3 sequence (P20963 22-164 partner): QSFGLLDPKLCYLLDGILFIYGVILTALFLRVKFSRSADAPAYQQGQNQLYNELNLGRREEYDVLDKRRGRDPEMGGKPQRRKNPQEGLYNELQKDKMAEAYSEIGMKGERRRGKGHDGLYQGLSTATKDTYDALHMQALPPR
Description: as §3, §4

[10] = Viability of PBL after 72 hr culture with anti-TCR stimulation (propidium iodide exclusion); assay type: cell-based, human; settings: human, anti-tcr stimulated pbl; PBL, 72 hr culture with anti-TCR stimulation, 100 μM; untreated 78; read-out: % Viable Cells
Description: as §2

[11] = system: anti-TCR stimulated PBL; experiment: as above; assay type: cell-based, human; settings: Table 5
Description: as §2

[12] = system: PBL; experiment: Viability of PBL after 72 hr culture (propidium iodide exclusion); assay type: cell-based, human; settings: 72 hr of continuous culture
Description: as §2

[13] = 10 min, αCD4-FITC binding to PBL in PBS, % logarithmic mean channel number, read-out: % Control Binding
[14] = 10 min, αCD4-FITC binding to PBL in PBS, % logarithmic mean channel number, compound 10 μM, read-out: % Control Binding

binding to serum proteins (in words) [1]: does not bind to serum proteins
Compound: O=C(O)C1=CC(=C(c2ccc(O)c(C(=O)O)c2)c2ccc(O)c(C(=O)O)c2)C=CC1=O [ATA, aurin tricarboxlyic acid, reference compound]
inhibition at 1 µM ([2]; Human immunodeficiency virus 1, 144 h, HIV reverse transcriptase activity, six day culture, 1 μM): 97% | CPM RT ([2]; six day culture, 1 μM): 109 CPM | pg/ml HIV p24 ([3]; 0.25 μg/ml): 111 pg/mL | pg/ml HIV p24 ([3]; 2.5 μg/ml): 0 pg/mL | viability at 72 h, 10 µM ([4]; 10 μM): 86%

remaining activity at 7 µM [5, 13]: 6%
Compound: Cc1cc(-c2cc(C)c(N=Nc3c(O)ccc4ccccc34)cc2S(=O)(=O)O)c(S(=O)(=O)O)cc1N=Nc1c(O)ccc2ccccc12 [Acid Red 89, C.I. Acid Red 89]

remaining activity at 50 µM ([5]; 10 min, αCD4-FITC binding to PBL in PBS, % logarithmic mean channel number, compound 50 μM, read-out: % Control Binding): 42%
Compound: Cc1cc(NC(=O)Nc2ccc(N=Nc3cc(S(=O)(=O)O)c4cccc(S(=O)(=O)O)c4c3)c(C)c2)ccc1N=Nc1cc(S(=O)(=O)O)c2cccc(S(=O)(=O)O)c2c1 [Direct Yellow 50, reference compound]

remaining activity at 10 µM [5, 14]: 70%
Compound: Nc1ccc2cc(S(=O)(=O)O)cc(O)c2c1N=Nc1ccc(NC(=O)Nc2ccc(N=Nc3c(N)ccc4cc(S(=O)(=O)O)cc(O)c34)c(S(=O)(=O)O)c2)cc1S(=O)(=O)O [Direct Red 75, C.I. Direct Red 75]

% Control Binding ([5]; αCD4-FITC binding to PBL in PBS, % logarithmic mean channel number, compound 10 μM): 1%
Compound: COc1cc(-c2ccc(N=Nc3ccc4c(S(=O)(=O)[O-])cc(S(=O)(=O)[O-])c(N)c4c3O)c(OC)c2)ccc1N=Nc1ccc2c(S(=O)(=O)[O-])cc(S(=O)(=O)[O-])c(N)c2c1O.[Na+].[Na+].[Na+].[Na+] [Direct Blue 1, C.I. Direct Blue 1]

remaining activity at 5 µM ([5]; 10 min, αCD4-FITC binding to PBL in PBS, % logarithmic mean channel number, compound 5 μM, read-out: % Control Binding): 102%
Compound: O=S(=O)(O)c1cccc(N=Nc2c(O)ccc3cc(S(=O)(=O)O)cc(S(=O)(=O)O)c23)c1 [FD1]

remaining activity at 12 µM ([5]; 10 min, αCD4-FITC binding to PBL in PBS, % logarithmic mean channel number, compound 12 μM, read-out: % Control Binding): 84%
Compound: O=C(Nc1ccc(N=Nc2ccc(O)c(C(=O)O)c2)cc1)Nc1ccc(N=Nc2ccc(O)c(C(=O)O)c2)cc1 [Direct Yellow 26, C.I. Direct Yellow 26]

Compound: O=S(=O)(O)c1ccc2c(N=Nc3ccccc3)ccc(N=Nc3ccc(Nc4ccccc4)c4c(S(=O)(=O)O)cccc34)c2c1 [Acid Blue 116, C.I. Acid Blue 116]
remaining rgp120 binding (% of control) at 7 µM ([6]; compound 7 μM): 9% | reduction of binding of αCD8 (fraction) ([7]; Table 3): about 1/2 | % Control Binding αCD8 ([7]; compound 4 μM): 54% | remaining activity at 4 µM ([5]; 10 min, Table 3, αCD4-FITC binding in PBS, compound 4 μM, read-out: % Control Binding αCD4): 1% | remaining activity at 7 µM [5, 13]: 0% | solubility in aqueous solutions (in words) [8]: near their limits of solubility | αCD3 binding, % of control at 4 µM ([9]; 10 min, αCD3-FITC binding in PBS, compound 4 μM): 44% | reduction of binding of αCD3 (fraction) ([9]; Table 3): about 1/2

Compound: Cc1ccccc1N=Nc1ccc(N=Nc2c(O)c(S(=O)(=O)[O-])cc3cc(S(=O)(=O)[O-])ccc23)c(C)c1.[Na+].[Na+] [Acid Red 115, C.I. Acid Red 115]
% Control Binding ([6]; compound 6 μM): 10% | % Control Binding αCD8 ([7]; compound 6 μM): 90% | % Control Binding αCD4 ([5]; Table 3, αCD4-FITC binding in PBS, compound 6 μM, 10 min): 2% | % Control Binding ([5]; αCD4-FITC binding to PBL in PBS, % logarithmic mean channel number, compound 6 μM, 10 min): 2% | solubility in aqueous solutions (in words) [8]: near their limits of solubility | effect on binding of αCD3 (in words) ([9]; Table 3): interferes with αCD3 | % Control Binding αCD3 ([9]; αCD3-FITC binding in PBS, compound 6 μM, 10 min): 41%

Compound: COc1cc(N=Nc2cc(S(=O)(=O)O)cc3cc(S(=O)(=O)O)cc(O)c23)c(C)cc1NC(=O)Nc1cc(C)c(N=Nc2cc(S(=O)(=O)O)cc3cc(S(=O)(=O)O)cc(O)c23)cc1OC [Direct Red 79, C.I. Direct Red 79]
inhibition at 100 µM ([2]; Human immunodeficiency virus 1, 144 h, HIV reverse transcriptase activity, six day culture, 100 μM): 97% | CPM RT ([2]; six day culture, 100 μM): 145 CPM | production of reverse transcriptase activity (in words) ([2]; after six days of culture): strongly inhibit | remaining rgp120 binding (% of control) at 10 µM ([6]; compound 10 μM): 30% | viability at 72 h, 100 µM [10]: 54% | effect on the proliferation of αTCR stimulated PBL (in words) [11]: limited effect | effect on binding of αCD8 (in words) ([7]; Table 3): does not affect binding | % Control Binding αCD8 ([7]; compound 20 μM): 106% | p24 production (in words) ([3]; intracellular HIV p24 protein): strongly decrease | pg/ml HIV p24 ([3]; 5 μg/ml): 333 pg/mL | effect on the viability of PBL (in words) [12]: no effect | viability at 72 h, 400 µM ([4]; 400 μM): 89% | remaining activity at 20 µM ([5]; 10 min, Table 3, αCD4-FITC binding in PBS, compound 20 μM, read-out: % Control Binding αCD4): 22% | remaining activity at 10 µM [5, 14]: 13% | αCD3 binding, % of control at 20 µM ([9]; 10 min, αCD3-FITC binding in PBS, compound 20 μM): 124% | effect on binding of αCD3 (in words) ([9]; Table 3): does not affect binding
